The text below walks through data of patent US11498928B2, “Macrocyclic spiroethers as Mcl-1 inhibitors” (ASCENTAGE PHARMA (SUZHOU) CO., LTD., priority 2019, dated 2022).

A value given as a limit tells only on which side of the number the result lay.

One assay concerns NCI-H929 cells. Put plainly: Cell viability assay (NCI-H929 cells), CCK-8. Type of assay: cell-based. The settings on record: 5% FBS. As to the method:
NCI-H929 cells were obtained from American Type Culture Collection (ATCC). Cells were maintained in the recommended culture medium (RPMI 1640) with 10% FBS and 0.05 mM BME at 37° C. and an atmosphere of 5% CO2.
The effect of Compounds on cell viability was determined using Cell Counting Kit-8 (CCK-8) assay according to the manufacturer's instructions. 95 μL of NCI-H929 cell suspension (20000 cells/well) in culture medium were seeded into 96-well plates and cultured 4 hrs. Each tested compound was serially diluted in DMSO, then 5 μL of the compound or DMSO was diluted in 95 μL medium once more. At last, 5 μL of the compound dilution was added to the corresponding well of the cell plate. After the addition of the tested compound, the cells were incubated at 37° C. in an atmosphere of 5% CO2 for 24 hrs. At the end, 10 μL of CCK-8 solution was added to each well of the plate and incubated for 1-4 hours. The plates were read at 450 nm on the microplate reader (BioTek Synergy 1MF). The readings were normalized to the vehicle cells, and the IC50 was calculated by nonlinear regression analysis using GraphPad Prism 6 software. Cell Viability Assay (OPM-2 cells)

The target of assay [1] is T1, Mcl-1 protein (residues 171-323) (Homo sapiens, UniProt Q07820).
T1 construct: Tag-free Mcl-1 protein (residues 171-323) was used in the FP assay
Put plainly: Inhibition of Mcl-1 by fluorescence polarization (FP) competitive binding assay with FAM-Bid tracer. The following applies: 2 nM FAM-Bid, 20 nM Mcl-1, 30 min. As to the method:
Inhibition of Mcl-1 by Fluorescence Polarization (FP) Assay.
The relative binding potency of representative Compounds of the Disclosure was determined by a fluorescence polarization (FP) assay (Long et al, BMC Biotechnology 13:45 (2013)). The method used a fluorescein labelled peptide (FAM-Bid) which binds to the Mcl-1 protein leading to an increased anisotropy measured in milli-polarization (mP) values using a plate reader. […] Tag-free Mcl-1 protein (residues 171-323) was used in the FP assay (Mady et al, Scientific Reports 8: 10210-10210 (2018); Yang et al, ACS Med. Chem. Lett. 3:308-312 (2012)).
A 10-points serial dilution of each compound was prepared in DMSO and 5 μL solution was transferred into flat bottomed, 96-well back plate (final DMSO concentration 5%). 120 μL of Buffer (PBS, 0.01% BGG (Sigma Cat. #SRE0011), 0.01% Triton X-100), containing the Fluorescein labelled peptide (Final concentration 2 nM) and Mcl-1 protein (final concentration 20 nM) was then added. Assay plates were incubated 30 mins at room temperature with gentle shaking before FP was measured on a Biotek Synergy 1MF reader (Ex. 485 nm, Em. 528 nm, Cut off 510 nm) and mP calculated. The binding of increasing doses of test compounds was expressed as a percentage reduction in mP compared to a window established between 5% DMSO only and 100% inhibition controls (no Mcl-1 protein). 10-points dose response curves were plotted with GraphPad software using Sigmoidal Dose-Response Model and the IC50 values were determined by nonlinear regression fitting of the competition curves. Cell Viability Assay (NCI-H929 cells)
(Fluorescence polarisation rises when a labelled molecule tumbles more slowly, as on binding a larger partner.)

A further assay concerns OPM-2 cells. Put plainly: Cell viability assay (OPM-2 cells), CCK-8. The format is cell-based. The settings on record: 5% FBS. As to the method: OPM-2 cells were obtained from Deutsche Sammlung von Mikroorganismen and Zellkulturen GmbH (DSMZ). Cells were maintained in the recommended culture medium with 10% FBS at 37° C. and an atmosphere of 5% CO2.
The effect of representative Compounds of the Disclosure on cell viability was determined using Cell Counting Kit-8 (CCK-8) assay (Shanghai Life iLab Bio Technology) according to the manufacturer's instructions. Each tested compound was serially diluted in culture medium, 100 μL of the compound dilution was added into 96-well plates. 100 μL of an OPM-2 cell suspension (20000 cells/well) in culture medium were seeded into the corresponding well of the plate and the cells were incubated at 37° C. in an atmosphere of 5% CO2 for 24 hours. In the next day, 20 μL of CCK-8 solution was added to each well of the plate and incubated for 4 hours.
The plates were read at 450 nm on the microplate spectrophotometer (SpectraMax plus 384, Molecular devices). The readings were normalized to the vehicle cells, and the IC50 was calculated by nonlinear regression analysis using GraphPad Prism 6 software.

As a reminder, the IC50 is the concentration that inhibits the measured activity by half.

T1 sequence (Q07820 171-323): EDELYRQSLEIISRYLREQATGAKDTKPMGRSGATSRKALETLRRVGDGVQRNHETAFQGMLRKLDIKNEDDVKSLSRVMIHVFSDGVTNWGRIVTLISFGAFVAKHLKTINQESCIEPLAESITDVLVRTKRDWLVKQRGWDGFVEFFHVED

Turning to `CO[C@H]1C2=C[C@H](C2)[C@H](C)[C@@H](C)S(=O)(=O)NC(=O)c2ccc3c(c2)N(C[C@@H]2CC[C@H]21)C[C@@]1(CCCc2cc(Cl)ccc21)CO3` (single isomer, unassigned) [Cpd. No. 15 (isomer 2)], the IC50 worked out at 0.23 µM with NCI-H929 cells (Homo sapiens, NCI-H929, 24 h); 0.0065 µM in assay [1]; 1 µM in the assay with OPM-2 cells (Homo sapiens, OPM-2, 24 h).
Consider `CO[C@H]1C2=CC(C2)C(C)(C)CS(=O)(=O)NC(=O)c2ccc3c(c2)N(C[C@@H]2CC[C@H]21)C[C@@]1(CCCc2cc(Cl)ccc21)CO3` (single isomer, unassigned) [Cpd. No. 5 (Isomer 1)], for which the IC50 in the assay with NCI-H929 cells (24 h) was 0.12 µM; in assay [1] it was 0.0048 µM; in the assay on OPM-2 cells (24 h), 0.411 µM.
With `CO[C@H]1C2=CC(C2)CC(C)S(=O)(=O)NC(=O)c2ccc3c(c2)N(C[C@@H]2CC[C@H]21)C[C@@]1(CCCc2cc(Cl)ccc21)CO3` (mixture of isomers) [11 (mixture)], the IC50 in the assay with NCI-H929 cells (Homo sapiens, NCI-H929, 24 h) was 0.27 µM; in assay [1], 0.0055 µM; in the assay on OPM-2 cells (Homo sapiens, OPM-2, 24 h) it was 0.967 µM.
Take `CO[C@@]1(CN2CCN(C)C(=O)C2)C2=C[C@@H](C2)[C@H](C)[C@@H](C)S(=O)(=O)NC(=O)c2ccc3c(c2)N(C[C@@H]2CC[C@H]21)C[C@@]1(CCCc2c1ccc(Cl)c2F)CO3` [compound 39, (1S,11′R,12′S,13′R,16′R,16a′R,18a′R,E)-6-chloro-5-fluoro-16′-methoxy-11′,12′-dimethyl-16′-((4-methyl-3-oxopiperazin-1-yl)methyl)-3,4,12′,13′,16′,16a′,17′,18′,18a′,19′-decahydro-1′H,2H,3′H, 11′H-spiro[naphthalene-1,2′-[5,7]etheno[13,15]methanocyclobuta[i][1,4]oxazepino[3,4-f][1]thia[2,7]diazacyclohexadecin]-8′(9′H)-one 10′,10′-dioxide]: the IC50 in the assay on NCI-H929 cells (Homo sapiens, NCI-H929, 24 h) is 0.0077 µM; in assay [1] it was 0.014 µM; with OPM-2 cells (Homo sapiens, OPM-2, 24 h), 0.062 µM.
With `CO[C@@H]1C2=CC(C2)[C@H](C)N(C)S(=O)(=O)NC(=O)c2ccc3c(c2)N(C[C@@H]2CC[C@H]21)C[C@@]1(CCCc2cc(Cl)ccc21)CO3` (single isomer, unassigned) [27 (isomer 2)], the values for the IC50 (with NCI-H929 cells (24 h); in assay [1]; in the assay on OPM-2 cells (24 h)) were 5 µM, 0.0034 µM and 3.61 µM, respectively.
For the compound `C[C@@H]1[C@@H](C)S(=O)(=O)NC(=O)c2ccc3c(c2)N(C[C@@H]2CC[C@H]2[C@@H](OCc2ncccn2)C2=C[C@H]1C2)C[C@@]1(CCCc2c1ccc(Cl)c2F)CO3` [compound 62, (1S,11′R,12′S,13′R,16′R,16a′R,18a′R,E)-6-chloro-5-fluoro-11′,12′-dimethyl-16′-(pyrimidin-2-ylmethoxy)-3,4,12′,13′,16′,16a′,17′,18′,18a′,19′-decahydro-1′H,2H,3′H,11′H-spiro[naphthalene-1,2′-[5,7]etheno[13,15]methanocyclobuta[i][1,4]oxazepino[3,4-f][1]thia[2,7]diazacyclohexadecin]-8′(9′H)-one 10′,10′-dioxide], the IC50 in the assay on NCI-H929 cells (Homo sapiens, NCI-H929, 24 h) came to 0.0093 µM; in assay [1], 0.0081 µM; with OPM-2 cells (Homo sapiens, OPM-2, 24 h), 0.059 µM.
The like results for `CO[C@@]1(CN2CCN(C3CCOCC3)CC2)C2=C[C@@H](C2)[C@H](C)[C@@H](C)S(=O)(=O)NC(=O)c2ccc3c(c2)N(C[C@@H]2CC[C@H]21)C[C@@]1(CCCc2c1ccc(Cl)c2F)CO3` [compound 36] were, in that order, 0.0044 µM, 0.013 µM and 0.035 µM.
As for `CO[C@@]1(CN2C[C@@H](C)N(C)[C@@H](C)C2)C2=C[C@@H](C2)[C@H](C)[C@@H](C)S(=O)(=O)NC(=O)c2ccc3c(c2)N(C[C@@H]2CC[C@H]21)C[C@@]1(CCCc2c1ccc(Cl)c2F)CO3` [compound 40, (1S,11′R,12′S,13′R,16′R,16a′R,18a′R,E)-6-chloro-5-fluoro-16′-methoxy-11′,12′-dimethyl-16′-(((3S,5R)-3,4,5-trimethylpiperazin-1-yl)methyl)-3,4,12′,13′,16′,16a′,17′,18′,18a′,19′-decahydro-1′H,2H,3′H,11′H-spiro[naphthalene-1,2′-[5,7]etheno[13,15]methanocyclobuta[i][1,4]oxazepino[3,4-f][1]thia[2,7]diazacyclohexadecin]-8′(9′H)-one 10′,10′-dioxide], the IC50 with NCI-H929 cells (Homo sapiens, NCI-H929, 24 h) was found to be 0.0026 µM; in assay [1] it was 0.017 µM; in the assay on OPM-2 cells (Homo sapiens, OPM-2, 24 h) it was 0.055 µM.
On to `CO[C@@]1(CN2CCC(N3CCOCC3)CC2)C2=C[C@@H](C2)[C@H](C)[C@@H](C)S(=O)(=O)NC(=O)c2ccc3c(n2)N(C[C@@H]2CC[C@H]21)C[C@@]1(CCCc2c1ccc(Cl)c2F)CO3` [compound 93, (1S,11′R,12′S,13′R,16′R,16a′R,18a′R)-6-chloro-5-fluoro-16′-methoxy-11′,12′-dimethyl-16′-((4-morpholinopiperidin-1-yl)methyl)-3,4,12′,13′,16′,16a′,17′,18′,18a′,19′-decahydro-1′H,2H,3′H,11′H-spiro[naphthalene-1,2′-[5,7]etheno[13,15]methanocyclobuta[i][1,4]oxazepino[3,4-f][1]thia[2,5,7]triazacyclohexadecin]-8′(9′H)-one 10′,10′-dioxide], for which the IC50 was 0.011 µM with NCI-H929 cells (Homo sapiens, NCI-H929, 24 h); 0.019 µM in assay [1]; 0.071 µM with OPM-2 cells (Homo sapiens, OPM-2, 24 h).
The like results for `CO[C@H]1C2=C[C@@H](C2)[C@H](C)N(C[C@H]2CCCO2)S(=O)(=O)NC(=O)c2ccc3c(c2)N(C[C@@H]2CC[C@H]21)C[C@@]1(CCCc2cc(Cl)ccc21)CO3` (single isomer, unassigned) [30 (isomer 4)] were, in that order, above 10 µM, 0.021 µM and above 10 µM.
Regarding `CC[C@@H]1CS(=O)(=O)NC(=O)c2ccc3c(c2)N(C[C@@H]2CC[C@H]2[C@@H](OC)C2=CC1C2)C[C@@]1(CCCc2cc(Cl)ccc21)CO3` (single isomer, unassigned) [Cpd. No. 9 (Isomer 2)], the IC50 with NCI-H929 cells (24 h) turned out to be 0.21 µM; in assay [1], 0.0039 µM; with OPM-2 cells (24 h) it was 0.26 µM.
In the case of `CO[C@@]1(CN2CCN(C(C)=O)CC2)C2=C[C@@H](C2)[C@H](C)[C@@H](C)S(=O)(=O)NC(=O)c2ccc3c(c2)N(C[C@@H]2CC[C@H]21)C[C@@]1(CCCc2c1ccc(Cl)c2F)CO3` [compound 49], the IC50 is 0.012 µM in the assay with NCI-H929 cells (Homo sapiens, NCI-H929, 24 h); 0.011 µM in assay [1]; 0.186 µM with OPM-2 cells (Homo sapiens, OPM-2, 24 h).
As to `CO[C@@H]1C2=CC(C2)C(C)(C)CS(=O)(=O)NC(=O)c2ccc3c(c2)N(C[C@@H]2CC[C@H]21)C[C@@]1(CCCc2cc(Cl)ccc21)CO3` (single isomer, unassigned) [Cpd. No. 6 (Isomer 1)], the IC50 was 0.87 µM in the assay on NCI-H929 cells (24 h), 0.0052 µM in assay [1] and 1.3 µM in the assay with OPM-2 cells (24 h).
On to `C[C@@H]1[C@@H](C)S(=O)(=O)NC(=O)c2ccc3c(c2)N(C[C@@H]2CC[C@H]2[C@@H](OCC(=O)N2CCN(C)CC2)C2=C[C@H]1C2)C[C@@]1(CCCc2c1ccc(Cl)c2F)CO3` [compound 70, (1S,11′R,12′S,13′R,16′R,16a′R,18a′R,E)-6-chloro-5-fluoro-11′,12′-dimethyl-16′-(2-(4-methylpiperazin-1-yl)-2-oxoethoxy)-3,4,12′,13′,16′,16a′,17′,18′,18a′,19′-decahydro-1′H,2H,3′H, 11′H-spiro[naphthalene-1,2′-[5,7]etheno[13,15]methanocyclobuta[i][1,4]oxazepino[3,4-f][1]thia[2,7]diazacyclohexadecin]-8′(9′H)-one 10′,10′-dioxide], for which the IC50 in the assay with NCI-H929 cells (Homo sapiens, NCI-H929, 24 h) came to 0.081 µM; in assay [1] it was 0.014 µM; in the assay with OPM-2 cells (Homo sapiens, OPM-2, 24 h), 0.035 µM.
